Experimental findings from patent US20070167488A1, “Novel therapeutic use” (Leo Pharma A/S, priority 2003, published 2007) are described below.

Marks after values point to notes of the source that are not given here.

Experiment [1] has as its system EAE induced in SJL/J mice with a peptide from myelin proteolipid protein (PLP139-153). Kind of experiment: EAE model in SJL/J mice immunized with PLP139-153 peptide. It counts as in vivo, mouse. To be noted: for Inhibition of EAE compared with the suspension vehicle group (in words): SJL/J mice, PLP139-153, doses as in tables 1 and 3.
Experiment [2] has as its system IL-2. Kind of experiment: Inhibition of IL-2 production in phytohemagglutinin-activated human PBMCs (sandwich ELISA). It counts as cell-based. To be noted: approximately 46 hours; for IC50: Homo sapiens, PBMC, 46 h, read-out: IL-2 pIC50 (converted). The protocol:
Peripheral blood mononuclear cells (PBMCs) were isolated from human blood. The lymphocytes, a fraction of the PBMCs, were activated to secrete IL-2 using the polyclonal mitogen phytohemagglutinin. The test compounds were added in concentrations from 10^−5 to 10^−10, and the cells (10^6/ml) were incubated in microtiter wells at 37° C. for approximately 46 hours.
After 46 hours the cells were centrifuged down for 25 minutes at 1000×g and the supernatants were transferred to transferred to microtiter wells precoated with a monoclonal antibody against human IL-2. The IL-2 concentration in the supernatants was determined by a sandwich ELISA. Microtiter plates were coated (1 μg/ml) with a monoclonal antibody (R&D, UK) against human IL-2, washed 4 times, blocked with 1% casein buffer for 2 hours and washed 2 times. 100 μl sample was added to each well and incubated overnight. All samples were tested in triplicate. 100 μl IL-2 standards (R&D, UK) at a concentration range of 10000-0 pg/ml were tested in triplicate. After incubation the plates were washed and incubated with biotinylated polyclonal secondary antibody against human IL-2 (R&D, UK) for 45 minutes and thereafter washed 4 times. 100 μl enzyme conjugate, horseradish peroxidase conjugated streptavidin diluted 1:4000 (Zymed, USA), was added to all wells and incubated for 30 minutes. 100 μl OPD substrate (KEM EN TEC-DK) was added and the enzyme/substrate reaction stopped after 10 minutes at room temperature with 50 μl 1 M H2SO4. The colour development (optical density—OD) was determined at 492 nm on an ELISA reader and the background OD at 620 nm subtracted).
A general note: An ELISA detects its analyte on a solid surface through an enzyme-linked reagent.

[3] abbreviates: Table 4, 50 mg/kg daily, treatment as in example 4.
Where [4] appears, read: Exp. 1, terminated day 21, 50 mg/kg i.p. daily.
[5] abbreviates: Exp. 4, terminated day 35, 200 mg/kg p.o. daily.
The mark [6] stands for this setting: Exp. 2, terminated day 21, 5 mg/kg i.p. daily.
Setting [7] is: Exp. 2, terminated day 21, 10 mg/kg i.p. daily.

As for `Cc1[nH]c(/C=C2\C(=O)Nc3ccccc32)c(C)c1Br` [Compound 22, 3-(4-bromo-3,5-dimethyl-1H-pyrrol-2-ylmethylene)-1,3-dihydro-indol-2-one], the “Inhibition (%) of EAE (area-under-curve of the disease score)” value (“Inhibition (%) of EAE” for short) in experiment [1] (setting [3]) came out at 78%. Regarding `Cc1[nH]c(C=C2C(=O)Nc3ccccc32)c(C)c1CCC(=O)O` [Compound A, 3-[2,4-dimethyl-5-(oxo-1,2-dihydroindol-3-ylidenemethyl)-1H-pyrrol-3-yl]-propionic acid, reference compound], in experiment [1] (setting [4]), the “AUC (mean) of the disease score” value was found to be 23.4 and the “inhibition (%)” value was −36%. In addition, in experiment [1] (setting [5]), the “AUC (mean) of the disease score” value worked out at 55.5 and the “inhibition (%)” value amounted to 11%. In experiment [1], the “Inhibition of EAE compared with the suspension vehicle group (in words)” value is given as “no significant inhibition”.

Take `Cc1ccc(C)c(/C=C2/C(=O)Nc3ccccc32)c1` [Compound 104, 3-(2,5-dimethyl-benzylidene)-1,3-dihydro-indol-2-one]: in experiment [1] (setting [3]), the “Inhibition (%) of EAE” value worked out at 71%. Regarding `O=C1Nc2ccccc2C1=Cc1cc(Cl)ccc1Cl` (racemic) [Compound 193, 3-(2,5-dichloro-benzylidene)-1,3-dihydro-indol-2-one], the “Inhibition (%) of EAE” value in experiment [1] (setting [3]) turned out to be 37%. Regarding `Cc1cc(C)c(/C(C(=O)O)=C2\C(=O)Nc3ccccc32)[nH]1` [Compound 229, (3,5-dimethyl-1H-pyrrol-2-yl)-(2-oxo-1,2-dihydro-indol-3-ylidene)-acetic acid], the “Inhibition (%) of EAE” value in experiment [1] (setting [3]) was found to be 59%. With `CO[C@@H]1[C@H](OC(=O)NC(=O)CCl)CC[C@]2(CO2)[C@H]1[C@@]1(C)O[C@@H]1CC=C(C)C` [Compound B, reference compound], the “AUC (mean) of the disease score” value in experiment [1] (setting [6]) came to 19.0; in experiment [1] (setting [7]), 19.3. The “inhibition (%)” value in experiment [1] (setting [6]) amounted to 25%; in experiment [1] (setting [7]) it was 24%. The “Inhibition of EAE compared with the suspension vehicle group (in words)” value in experiment [1] was “no significant inhibition”. On to `CCOC(=O)c1cc(C)c(/C=C2\C(=O)Nc3ccccc32)[nH]1` [Compound 01, 4-methyl-5-(2-oxo-1,2-dihydro-indol-3-ylidenemethyl)-1H-pyrrole-2-carboxylic acid ethyl ester], for which the “Inhibition (%) of EAE” value in experiment [1] (setting [3]) is 44%.

Regarding `CCCn1cc(/C=C2\C(=O)Nc3ccccc32)c2ccccc21` [Compound 31, 3-(1-propyl-1H-indol-3-ylmethylene)-1,3-dihydro-indol-2-one], the “Inhibition (%) of EAE” value in experiment [1] (setting [3]) turned out to be 60%. In the case of `Cc1cc(C)c(/C=C2\C(=O)N(O)c3ccccc32)[nH]1` [Compound 45, 3-(3,5-dimethyl-1H-pyrrol-2-ylmethylene)-1-hydroxy-1,3-dihydro-indol-2-one], in experiment [1] (setting [3]), the “Inhibition (%) of EAE” value was 67%. Regarding `Cc1cc(C(=O)NCCO)[nH]c1/C=C1\C(=O)Nc2ccccc21` [Compound 02, 4-methyl-5-(2-oxo-1,2-dihydro-indol-3-ylidenemethyl)-1H-pyrrole-2-carboxylic acid (2-hydroxy-ethyl)-amide], in experiment [1] (setting [3]), the “Inhibition (%) of EAE” value was 41%. For `COc1ccc(OC)c(/C=C2/C(=O)Nc3cc(Br)ccc32)c1` [Compound 171, 6-bromo-3-(2,5-dimethoxy-benzylidene)-1,3-dihydro-indol-2-one], the “Inhibition (%) of EAE” value in experiment [1] (setting [3]) is reported as 40%.

Turning to `Cc1cc(CO)[nH]c1/C=C1\C(=O)Nc2ccccc21` [Compound 03, 3-(5-hydroxymethyl-3-methyl-1H-pyrrol-2-ylmethylene)-1,3-dihydro-indol-2-one], the “Inhibition (%) of EAE” value in experiment [1] (setting [3]) was 57%.

For `O=C(O)Cn1cc(/C=C2\C(=O)Nc3ccccc32)c2ccccc21` [Compound 26, [3-(2-oxo-1,2-dihydro-indol-3-ylidenemethyl)-indol-1-yl]-acetic acid], the “Inhibition (%) of EAE” value in experiment [1] (setting [3]) is 34%. On to `COc1ccc(OC)c(/C=C2/C(=O)Nc3ccc(F)cc32)c1` [Compound 211, 3-(2,5-dimethoxy-benzylidene)-5-fluoro-1,3-dihydro-indol-2-one], for which the “Inhibition (%) of EAE” value in experiment [1] (Table 7, 50 mg/kg p.o., suspension vehicle adjusted to pH 4 by addition of aqueous HCl) is listed as 37** %.

Take `CCN(CC)CCNC(=O)c1c(C)[nH]c(/C=C2\C(=O)Nc3ccc(F)cc32)c1C` [Compound 228, 5-(5-fluoro-2-oxo-1,2-dihydro-indol-3-ylidenemethyl)-2,4-dimethyl-1H-pyrrole-3-carboxylic acid (2-diethylamino-ethyl)-amide]: the “Inhibition (%) of EAE” value in experiment [1] (setting [3]) is 43%. Regarding `O=C1Nc2ccc(Cl)cc2/C1=C/c1ccccc1O`, the IC50 in experiment [2] was 100 nM. Consider `COc1cccc(C=C2C(=O)Nc3ccccc32)c1` (racemic) [Compound 153, 3-(3-methoxy-benzylidene)-1,3-dihydro-indol-2-one], for which the “Inhibition (%) of EAE” value in experiment [1] (setting [3]) was found to be 38%.

On to `COc1ccc(OC)c(/C=C2/C(=O)Nc3cc(F)ccc32)c1`, for which the IC50 in experiment [2] was 10 nM. On the same count and under the same terms, then `O=C1Nc2ccccc2/C1=C\c1cc(Cl)cc(Cl)c1OCc1ccc2ccccc2n1`, with 100 nM. For the molecule `COc1ccc(OC)c(/C=C2/C(=O)Nc3c(F)cccc32)c1`, in experiment [2], the IC50 is 501 nM. Take `COc1ccc(OC)c(/C=C2/C(=O)Nc3c(F)cc(F)cc32)c1`: in experiment [2], the IC50 is 10 nM. For `Cc1cc(C(=O)NCCO)[nH]c1/C=C1\C(=O)Nc2ccccc21` [drawing 176], the IC50 in experiment [2] is 31.6 nM. Still for that read-out and setting: the same measure for `COc1ccc(/C=C2\C(=O)Nc3ccc(Cl)cc32)cc1`: 10 nM.

`CCN(CC)CCNC(=O)c1c(C)[nH]c(/C=C2\C(=O)Nc3ccccc32)c1C` [Compound 227, 2,4-dimethyl-5-(2-oxo-1,2-dihydro-indol-3-ylidenemethyl)-1H-pyrrole-3-carboxylic acid (2-diethylamino-ethyl)-amide]: the “Inhibition (%) of EAE” value in experiment [1] (setting [3]) worked out at 49%.

As to `CC(C)(C)OC(=O)N1C(=O)/C(=C\c2c[nH]c3ccccc23)c2ccccc21`, in experiment [2], the IC50 is 1 nM. Regarding `O=C1Nc2c(Br)cccc2/C1=C/c1c[nH]c2ccccc12`, the IC50 in experiment [2] was 0.2 nM. Take `COc1ccc(OC)c(/C=C2/C(=O)Nc3ccc(O)cc32)c1`: in experiment [2], the IC50 is 200 nM. With `Cc1cc(C)c(/C(C(=O)OCc2ccccc2)=C2\C(=O)Nc3ccccc32)[nH]1`, the IC50 in experiment [2] was 20 nM.

On to `CN1CCN(c2c(/C=C3\C(=O)Nc4ccccc43)c3ccccc3n2C)CC1`, for which, in experiment [2], the IC50 is 79.4 nM. Same read-out and setting: the same measure for `COc1ccc(O)c(/C=C2\C(=O)Nc3ccccc32)c1`: 200 nM; for `O=C1Nc2ccccc2/C1=C/c1cccc([N+](=O)[O-])c1`: 20 nM; for `O=C1Nc2ccccc2/C1=C\c1cc(Br)co1`: 31.6 nM. For `Cc1[nH]c2ccccc2c1/C=C1/C(=O)Nc2ccccc21` [Compound 75, 3-(2-methyl-1H-indol-3-ylmethylene)-1,3-dihydro-indol-2-one], in experiment [1] (setting [3]), the “Inhibition (%) of EAE” value was 63%. `Cc1cc(C)c(/C=C2\C(=O)N(O)c3ccccc32)[nH]1` [drawing 224]: the IC50 in experiment [2] is 10 nM. Consider `COc1ccc(OC)c(/C=C2\C(=O)Nc3ccc(Cl)cc32)c1`, for which the IC50 in experiment [2] was 20 nM. `COc1ccc(OC)c(/C=C2/C(=O)Nc3cc(S(C)(=O)=O)ccc32)c1`: the IC50 in experiment [2] was 794 nM.

With `COc1cc(/C=C2/C(=O)Nc3ccccc32)ccc1O`, in experiment [2], the IC50 is 100 nM.

`O=C1Nc2ccc(O)cc2/C1=C/c1c[nH]c2ccccc12`: the IC50 in experiment [2] is 79.4 nM. Turning to `CCOC(=O)CCCNC(=O)c1cc(C)c(/C=C2\C(=O)Nc3ccccc32)[nH]1`, the IC50 in experiment [2] is 39.8 nM. As for `O=C1Nc2ccccc2/C1=C\c1ccc(-c2ccccc2)o1`, the IC50 in experiment [2] is 3.98 nM.

Regarding `O=C1Nc2cc(Cl)ccc2/C1=C/c1c[nH]c2ccccc12`, in experiment [2], the IC50 was 63.1 nM. As for `O=C1Nc2ccccc2/C1=C/c1c[nH]c2ccc(F)cc12`, in experiment [2], the IC50 is 100 nM.

In the case of `Cc1[nH]c(/C=C2\C(=O)Nc3ccccc32)c(C)c1Cl`, the IC50 in experiment [2] is 1 nM.

With `Cc1cc(C(=O)NCCCCCCO)[nH]c1/C=C1\C(=O)Nc2ccccc21`, in experiment [2], the IC50 is 100 nM. Turning to `O=C1Nc2ccccc2/C1=C\c1cn(Cc2cnc(Cl)s2)c2ccccc12`, the IC50 in experiment [2] is 10 nM. Consider `Cc1ccc(C)c(/C=C2/C(=O)Nc3ccccc32)c1` [drawing 112], for which the IC50 in experiment [2] is 100 nM. Take `COc1ccc2c(/C=C3\C(=O)Nc4ccccc43)cn(C)c2c1`: the IC50 in experiment [2] was 6.31 nM. As to `COc1ccc(OC)c(/C=C2/C(=O)Nc3ccc(N)cc32)c1.CS(=O)(=O)O`, the “IL-2 pIC50” value in experiment [2] worked out at 7.2. On to `COc1ccc(F)c(/C=C2/C(=O)Nc3ccccc32)c1`, for which the IC50 in experiment [2] was 63.1 nM. As for `Cc1cc(C(=O)NCCCCCO)[nH]c1/C=C1\C(=O)Nc2ccccc21`, the IC50 in experiment [2] is 63.1 nM.

Turning to `COc1ccc(OC)c(/C=C2/C(=O)Nc3ccc(Br)cc32)c1`, the IC50 in experiment [2] was 100 nM.
